The source of these data is BindingDB's records for PubMed 30125720 (Southern Medical University, 2018).

The test can be described thus: Inhibition of TGF-beta (unknown origin).
As for `O=c1[nH]cc(-c2cccc(CO)c2)cc1-c1nc2cc(N3CCNCC3)ccc2[nH]1`, half-maximal inhibition (IC50) was put at 970 nM. This counts as sub-micromolar.
For the compound `CC(=O)Nc1cc(Nc2nc(-c3ccc(F)c(C)n3)nc3[nH]cnc23)ccn1`, half-maximal inhibition (IC50) was put at 0.34 nM. This IC50 lies about 2900-fold lower than the previous one.
Then `CCc1cnn(-c2cccc(C)n2)c1-c1cc2cnccc2s1` [US9090625, 4], with 4.3 nM.
